Assay results taken from US12636291B2, “Compositions and methods relating to use of agonists of ALPHA5-containing GABAA receptors” (Centre for Addiction and Mental Health, priority 2019, dated 2026).

What was measured:
[1] = test system: pyramidal cells in the CA1 region of the hippocampus; experiment: Golgi staining morphological analysis of CA1 pyramidal cells; type: in vivo, mouse; settings: for total spine counts, apical dendrites / total spine counts, basal dendrites: FIG. 19B; for overall spine density: FIG. 20A; for spine density, apical dendrites / spine density, basal dendrite: FIG. 20B; for spine density versus branch order, overall: FIG. 21A; for spine density versus branch order, basal dendrites: FIG. 21B; for spine density versus branch order, apical dendrites: FIG. 21C; for spine density at 30 um intervals from the soma, overall: FIG. 22A; for spine density at 30 um intervals from the soma, basal dendrites: FIG. 22B; for spine density at 30 um intervals from the soma, apical dendrites: FIG. 22C
Experimental: Details of the animals, materials, and methods used are provided following the discussion section below. Briefly, all studies discussed below were conducted using three groups of animals designated “Young” (2 months of age at the beginning of the 8-week study, 4 months of age at time of testing; “Old” (22 months of age at beginning of study, 24 months of age at time of testing); and “Treatment” (“Old” mice who received GL-II-73 in the drinking water for 8 weeks prior to evaluation of cognitive ability and pyramidal cell morphology). The last study further included a fourth group of animals, “Treatment+Washout” which were treated the same as the “Treatment” group except that the GL-II-73 was removed for a 1 week “wash-out” period prior to evaluation of pyramidal cell morphology.
We confirmed and extended these findings by conducting similar analyses of pyramidal cells in a different brain region, namely the CA1 region of the hippocampus, using the same animals. […] As observed above for the pyramidal cells of the PFC, the morphology of the CA1 pyramidal cells in the treatment group was very similar to that of the young mice. […] The positive correlation between the morphological changes observed in each of the three groups of animals in both regions of the brain, CA1 vs PFC brain regions is shown in FIGS. 11-12. This positive correlation of morphological changes across these two regions of the brain indicates a common factor underlying the effects in both regions.
We also performed the same morphological analyses of pyramidal cells in the CA1 region of the hippocampus for each group.
Drug preparation and administration: The compound GL-II-73 was administered in the drinking water for 8 weeks, and made fresh every other day to prevent any deterioration of the compound in the water at room temperature. The solution was prepared at 30 mg/kg for an estimated volume of 8 ml/mouse/day, based on previous calculations. For the pilot study in the 5×FAD mouse model, the compound GL-II-73 was prepared for intra peritoneal injection only, at a dose of 10 mg/kg. Vehicle solution was made of 85% distilled water, 14% propylene glycol and 1% tween-80.
Brain collection and Golgi staining: Twenty-four hours after the completion of the behavioral testing, mice were euthanized using cervical dislocation. Brains were carefully collected from the skull, rinsed with MilliQ water and immersed in the Golgi staining solution provided by Neurodigitech (San Diego, CA). Six hours after the beginning of the incubation, the solution was changed to provide fresh solution. Then brains were left incubating for 14 days at room temperature, in the dark. For better results, vials containing the brains were gently swirled 3 times a week. After the incubation period, the staining solution was discarded and replaced by a storage solution and brains (n=4 per group) were shipped to Neurodigitech for morphological analysis.
Sample selection criteria: The sampling process was conducted as follows: The investigators first 1) previewed the entire rostro-caudal axis of ROIs, under low-mag Zeiss objectives (10× and 20×), 2), compared and located those with the least truncations of distal dendrites as possible under high-mag Zeiss objectives (40× and 63×), 3), and then 4) used a Zeiss 100× objective with immersion oil to perform 3D dendritic reconstruction, followed by counting of the spines throughout the entire dendritic trees. The criteria for selecting candidate neurons for analysis were based on i) visualization of a completely filled soma with no overlap of neighboring soma and completely filled dendrites, ii) the tapering of most distal dendrites; iii) the visualization of the complete 3-D profile of dendritic trees using the 3-D display of imaging software. Neurons with incomplete impregnation and/or neurons with truncations due to the plane of sectioning were not collected. […]

[2] = test system: cultured pyramidal neurons; experiment: Morphology of cultured GFP-expressing pyramidal neurons after acute treatment; type: cell-based, mouse; settings: 1 μM, 24 hrs, vs vehicle (0.01% DMSO); FIG. 11A-B; initial data
Experimental: Transgenic mice were generated to express a fluorescent protein (GFP) only in pyramidal neurons. Embryos were collected at E17, and brain homogenates were plated and cultured under suitable conditions for neuronal growth. Following 2 weeks of incubation and growth, the compound GL-II-73 (1 μM) or vehicle was applied and left for 24 hrs. Isolated cells were then used to image the entire neuron and visualize dendrites and spines on a single neuron.

[3] = Table 3, Old, Treatment group, 4 samples
[4] = Table 3, Old, Washout group, 4 samples
[5] = first study, Old+Treatment mice
[6] = washout study, Old+Treatment vs Young mice, p>0.05
[7] = washout study, Washout vs Old mice, p<0.05
[8] = washout study, Old+Treatment vs Old mice, p<0.05

C#Cc1ccc2c(c1)C(c1ccccc1F)=N[C@H](C)c1c(C(=O)N(C)C)ncn1-2 (stereo in doubt) [GL-II-73, 8-ethynyl-6-(2-fluorophenyl)-N,N,4-trimethyl-4H-benzo[f]imidazo[1,5-a][1,4]diazepine-3-carboxamide]
Total segments ([1]; Table 3, washout study, Old, Treatment group (8 weeks GL-II-73), 4 samples): 1226
Overall spinal density [1, 3]: 1.07
Total lengths (microns) [1, 3]: 60170 microns
total spine counts [1, 3]: 64468
Total segments ([1]; Table 3, Old, Washout group (8 weeks GL-II-73, then 1 week wash-out), 4 samples): 1266
Overall spinal density [1, 4]: 1.10
Total lengths (microns) [1, 4]: 65954 microns
total spine counts [1, 4]: 72587
Frequency of Intersections × 30 um interval from soma, apical [1, 5]: at 150 um-180 um, apically
Frequency of Intersections × 30 um interval from soma, basal [1, 5]: higher frequency at 120 um-150 um, basally
Frequency of Intersections × 30 um interval from soma ([1]; first study, Old+Treatment vs Old mice): higher frequency of intersections at the middle (120 um to 180 um) of the dendritic field than Old mice
spine density ([1]; first study, treatment group vs untreated old mice): relatively higher spine density than the untreated group of old mice
total spine counts ([1]; washout study, FIG. 19A, Old+Treatment vs Young mice, p>0.05): no difference was found between Young and Old+Treatment as well as Washout mice
total spine counts ([1]; washout study, FIG. 19A, Washout (1 week after 8 weeks GL-II-73) vs Old mice, p<0.05): higher spine counts than Old mice
total spine counts, apical dendrites [1, 6]: no difference in total spine counts of both basal and apical dendrites between Young and Old+Treatment as well as Washout mice
total spine counts, basal dendrites [1, 6]: no difference in total spine counts of both basal and apical dendrites between Young and Old+Treatment as well as Washout mice
total spine counts, apical dendrites [1, 7]: higher spine counts of apical dendrites than Old mice
total spine counts, basal dendrites [1, 7]: higher spine counts of basal dendrites than Old mice
overall spine density [1, 8]: higher spine density than Old mice
overall spine density [1, 7]: higher spine density than Old mice
spine density, apical dendrites [1, 8]: Old mice exhibited a lower spine density than Young, Old+Treatment and Washout mice
spine density, basal dendrite [1, 8]: Old mice showed a significant decrease in the basal dendrite as compared to Young, Old+Treatment and Washout mice
spine density, apical dendrites [1, 7]: Old mice exhibited a lower spine density than Young, Old+Treatment and Washout mice
spine density, basal dendrite [1, 7]: Old mice showed a significant decrease in the basal dendrite as compared to Young, Old+Treatment and Washout mice
spine density versus branch order, overall [1, 8]: higher spine density at the 1st and 5th branch orders
spine density versus branch order, overall [1, 7]: higher spine density at the 1st and 3rd to 6th
spine density versus branch order, basal dendrites [1, 8]: higher density at the 1st branch order than Old mice
spine density versus branch order, basal dendrites [1, 7]: higher density at the 1st branch order than Old mice
spine density versus branch order, apical dendrites [1, 8]: higher density at the 1st order than Old mice
spine density versus branch order, apical dendrites [1, 7]: at the 4th and 5th orders than Old mice
spine density at 30 um intervals from the soma, overall [1, 8]: higher spine density at 30 um to 60 um and 120 um to 240 um from soma
spine density at 30 um intervals from the soma, overall [1, 7]: higher spine density at 30 um to 180 um from soma
spine density at 30 um intervals from the soma, basal dendrites [1, 8]: higher density at 30 um from soma than Old mice
spine density at 30 um intervals from the soma, basal dendrites [1, 7]: higher density at 30 um from soma than Old mice
spine density at 30 um intervals from the soma, apical dendrites [1, 8]: higher density at 120 um to 180 um from soma than Old mice
spine density at 30 um intervals from the soma, apical dendrites [1, 7]: higher spine density at 30 um to 60 um and 120 um to 210 um from soma than Old mice
dendritic length [2]: longer dendrites
spine density (spines) [2]: more spines
